Laboratory results taken from US20100189811A1, “Biocide compositions comprising 3-methylisothiazolin-3-one and a haloalkyl sulphone” (THOR GmbH, priority 2009, published 2010).

Assays:
[1] = test system: Pseudomonas aeruginosa (ATCC 9027); assay: Minimum inhibitory concentration and synergy index in nutrient agar, visual test for growth; assay type: cell-based; conditions: 48 hours at 30° C.; for Synergy index Qa/QA + Qb/QB: method of Kull et al.
Description: (§1) The synergism of a combination of MIT with diiodomethyl p-tolyl sulphone was tested. Test organisms used were the Gram-negative bacterium Pseudomonas aeruginosa (ATCC 9027) and the mould Aspergillus niger (ATCC16404). For the purpose of the test, mixtures containing different concentrations of MIT and diiodomethyl p-tolyl sulphone were prepared and tested for their action on Pseudomonas aeruginosa and Aspergillus niger respectively. The active compound mixtures in the corresponding concentrations were introduced into selective nutrient media (nutrient agar for Pseudomonas aeruginosa and Sabouraud glucose agar for Aspergillus niger) and the test organisms were likewise incorporated into the agar. The cell density in the agar was in each case 10^6 microbes per ml in the case of Pseudomonas aeruginosa and 10^5 spores per ml in for Aspergillus niger.
(§2) The incubation time is 48 hours (bacteria) or 72 hours (moulds) at 30° C. and 25° C. respectively. This was followed by visual testing for growth of Pseudomonas aeruginosa and Aspergillus niger. In the case of Pseudomonas aeruginosa, growth was apparent by hazing or greenish coloration of the nutrient medium, or by formation of colonies on the surface of the agar. In the case of Aspergillus niger, the growth was apparent through the formation of colonies or mycelia on the surface of the agar. In this way the minimum inhibitory concentrations (MICs) of the two active compounds were determined, individually and in combination. The MIC is the concentration at which there is no longer any hazing, colouring of the agar or colony formation on the surface of the agar (Pseudomonas aeruginosa) and no formation of colonies or mycelia on the surface of the agar (Aspergillus niger).
(§3) The synergism that occurred was presented numerically by calculation of the synergy index (SI). This calculation was made using the common method of F. C. Kull et al., Applied Microbiology, vol. 9 (1961), p. 538. SI is calculated there in accordance with the following formula:
(§4) Synergy index SI=Qa/QA+Qb/QB
(§5) In the application of this formula to the MIT+DIMTS biocide system tested here, the variables in the formula have the following definition:
(§6) Qa=concentration of MIT in the mixture of diiodomethyl p-tolyl sulphone+MIT QA=concentration of MIT as sole biocide Qb=concentration of diiodomethyl p-tolyl sulphone in the biocide mixture QB=concentration of diiodomethyl p-tolyl sulphone as sole biocide
(§7) If the synergy index has a value of more than 1, this means that there is an antagonism.
(§8) If the synergy index adopts a value of 1, this means that the action of the two biocides is additive. If the synergy index takes on a value of below 1, this means that there is synergism of the two biocides.

[2] = test system: Aspergillus niger (ATCC16404); assay: Minimum inhibitory concentration and synergy index in Sabouraud glucose agar, visual test for growth; assay type: cell-based; conditions: 72 hours at 25° C.; for Synergy index Qa/QA + Qb/QB: method of Kull et al.
Description: as §1, §2, §3, §4, §5, §6, §7, §8

[3] = concentration of DIMTS (sole or in the mixture) that shows an endpoint
[4] = concentration of MIT (sole or in the mixture) which shows an endpoint

| SMILES | Synergy index Qa/QA + Qb/QB [1] | MHK Qb (DIMTS) [1, 3] [ppm] | Synergy index Qa/QA + Qb/QB [2] | MHK Qb (DIMTS) [2, 3] [ppm] | MHK Qa (MIT) [1, 4] [ppm] | MHK Qa (MIT) [2, 4] [ppm] |
| --- | --- | --- | --- | --- | --- | --- |
| Cc1ccc(S(=O)(=O)C(I)I)cc1 [DIMTS, diiodomethyl p-tolyl sulphone] | 1.00 | 1250 | 1.00 | 10 |  |  |
| Cn1sccc1=O [MIT, 2-methylisothiazolin-3-one] | 1.00 |  | 1.00 |  | 40 | 800 |
